Data from patent publication US11883387B2, “PqsR inverse agonists” (HELMHOLTZ-ZENTRUM FÜR INFEKTIONSFORSCHUNG GMBH, priority 2018, dated 2024).

Assays:
[1] = Kinetic Turbidimetric Aqueous Solubility at room temperature for 5 min; assay type: physicochemical; conditions: PBS buffer, kinetic from dmso stock, 2% DMSO
Experimental: Kinetic Turbidimetric Aqueous Solubility at room temperature for 5 min. Test compound was diluted in PBS buffer to give a range of concentrations (typically 0.4, 2, 4, 20, 40, 100, and 200 μM, final DMSO concentration 2%) and incubated at room temperature for 5 min. Absorbance was measured at a wavelength of 620 nm and the solubility was estimated from the concentration of test compound that produces an increase in absorbance above the vehicle control (i.e., […]). Data was analyzed by fitting a four parameter sigmoidal function to the measured and normalized absorbances and AUC calculation providing access to Log S (decadic logarithm of the solubility).

PqsR = PqsR (Pseudomonas aeruginosa, UniProt Q9I4X0); experiment: E. coli based β-galactosidase reporter gene assay (PqsR inverse agonistic activity); assay type: cell-based; set-up: expressed in transfected cells; host or cells: Escherichia coli DH5α
How it was run: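 E. coli DH5α carrying pEAL08-2 (tac-driven pqsR with pqsA-lacZ) was grown to OD600 0.2 and incubated with 0.001–10 μM compound plus 50 nM PQS for 2.5 h at 37 °C. β-Galactosidase activity was measured by ONPG conversion in permeabilized cells and normalized between the no-PQS and solvent controls. IC50 came from concentration variation.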

[2] = tested on: P. aeruginosa pyocyanin production; experiment: Pyocyanin assay; assay type: cell-based, P. aeruginosa PA14; conditions: Pseudomonas aeruginosa, PA14, 16 h, read-out: IC50-value towards pyocyanin production, PA14 in PPGAS medium, 16 h
How it was run: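 PA14 in PPGAS medium from OD600 0.02 grown 16 h at 37 °C, 200 rpm, with compounds. Pyocyanin extracted with chloroform, back-extracted into 0.2 M HCl, OD520 normalised to OD600.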

Sequence of PqsR (Q9I4X0 whole entry): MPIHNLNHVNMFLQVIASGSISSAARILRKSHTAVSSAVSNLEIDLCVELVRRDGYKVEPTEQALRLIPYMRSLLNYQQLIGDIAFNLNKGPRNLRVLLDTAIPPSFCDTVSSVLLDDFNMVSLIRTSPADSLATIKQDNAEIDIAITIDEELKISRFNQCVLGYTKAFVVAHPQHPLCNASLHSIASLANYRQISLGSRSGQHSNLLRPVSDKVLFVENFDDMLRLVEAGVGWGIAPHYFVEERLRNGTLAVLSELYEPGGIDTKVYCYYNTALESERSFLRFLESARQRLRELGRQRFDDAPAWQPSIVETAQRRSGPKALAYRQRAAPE

SMILES | solubility at 5 min [1] [µM] | IC50 (PqsR) [nM] | IC50 [2] [nM]
CC(C)Oc1ccc(-n2cc(CNc3ccnc(C(F)(F)F)c3)nn2)cc1Cl [Compound 036, N-((1-(3-Chloro-4-isopropoxyphenyl)-1H-1,2,3-triazol-4-yl)methyl)-2-(trifluoromethyl)pyridin-4-amine] | > 25 | ≤ 50 | ≤ 250
CC(C)Oc1ccc(-n2cc(CNc3cc(Cl)nc(C(F)(F)F)c3)nn2)cc1Cl [Compound 042, 2-Chloro-N-((1-(3-chloro-4-isopropoxyphenyl)-1H-1,2,3-triazol-4-yl)methyl)-6-(trifluoromethyl)pyridin-4-amine] | > 10 | ≤ 50 | ≤ 250
FC(F)(F)c1cc(NCc2cn(-c3ccc(OC4CCC4)c(Cl)c3)nn2)ccn1 [Compound 047, N-((1-(3-chloro-4-cyclobutoxyphenyl)-1H-1,2,3-triazol-4-yl)methyl)-2-(trifluoromethyl)pyridin-4-amine] | > 25 | ≤ 50 | ≤ 250
N#Cc1cc(NCc2cn(-c3ccc(Oc4ccccc4)cc3)nn2)cc(Cl)n1 [Compound 051, 6-Chloro-4-(((1-(4-phenoxyphenyl)-1H-1,2,3-triazol-4-yl)methyl)amino)picolinonitrile] | > 50 | ≤ 50 | ≤ 250
COc1ccc(-c2ncc(CNc3ccnc(C(F)(F)F)c3)s2)cc1C [Compound 074, N-((2-(4-Methoxy-3-methylphenyl)thiazol-5-yl)methyl)-2-(trifluoromethyl)pyridin-4-amine] | > 25 | 51 to 250 | 251 to 1000
FC(F)(F)c1cc(NCc2nc(-c3ccc(Oc4ccccc4)cc3)cs2)ccn1 [Compound 079, N-((4-(4-Phenoxyphenyl)thiazol-2-yl)methyl)-2-(trifluoromethyl)pyridin-4-amine] | > 25 | 251 to 1000 | 
COc1ncc(-c2nc(CNc3ccnc(C(F)(F)F)c3)cs2)cc1Cl [Compound 084, N-((2-(5-Chloro-6-methoxypyridin-3-yl)thiazol-4-yl)methyl)-2-(trifluoromethyl)pyridin-4-amine] | > 25 | 51 to 250 | 
COc1ncc(-c2ccc(CNc3ccnc(C(F)(F)F)c3)nc2)cc1Cl [Compound 101, N-((5′-Chloro-6′-methoxy-[3,3′-bipyridin]-6-yl)methyl)-2-(trifluoromethyl)pyridin-4-amine] | > 25 | 51 to 250 | 
Nc1cc(SCc2nc3cc(Cl)c(Cl)cc3[nH]2)nc(C(F)(F)F)n1 [Compound 117, 6-(((5,6-Dichloro-1H-benzo[d]imidazol-2-yl)methyl)thio)-2-(trifluoromethyl)pyrimidin-4-amine] | > 50 | 51 to 250 | 
FC(F)(F)c1cc(OCc2nc3cc(Cl)c(Cl)cc3[nH]2)ccn1 [Compound 120, 5,6-Dichloro-2-(((2-(trifluoromethyl)pyridin-4-yl)oxy)methyl)-1H-benzo[d]imidazole] | > 50 | 251 to 1000 | 
Fc1ccc(Oc2ccc3[nH]c(CSc4ccnc(C(F)(F)F)c4)nc3c2)cc1 [Compound 173, 5-(4-fluorophenoxy)-2-(((2-(trifluoromethyl)pyridin-4-yl)thio)methyl)-1H-benzo[d]imidazole] | > 25 |  | 251 to 1000
Nc1cc(SCc2nc3cc(Oc4cccnc4)ccc3[nH]2)nc(C(F)(F)F)n1 [Compound 174, 6-(((5-(pyridin-3-yloxy)-1H-benzo[d]imidazol-2-yl)methyl)thio)-2-(trifluoromethyl)pyrimidin-4-amine] | ≥ 100 |  | 251 to 1000
N#Cc1cc(SCc2nc3cc(Oc4ccccc4)ccc3[nH]2)ccn1 [Compound 175, 4-(((5-phenoxy-1H-benzo[d]imidazol-2-yl)methyl)thio)picolinonitrile] | > 25 |  | 251 to 1000
